# Laboratory results published in patent US20240116946A1 (Gilead Sciences, Inc., priority 2022, published 2024).
# Experiments:
# [1] = target: SARS-CoV-2 main protease (Severe acute respiratory syndrome coronavirus 2 (2019-nCoV) (SARS-CoV-2), UniProt P0DTD1); test: activity comparison of separated atropisomers (assay not given); conditions: Isomer 1 versus Isomer 2 after chiral SFC separation; used to assign stereochemistry by analogy to Example 438
# [2] = target: recombinant SARS-CoV-2 Main protease (Mpro) (Severe acute respiratory syndrome coronavirus 2 (2019-nCoV) (SARS-CoV-2), UniProt P0DTD1); test: Cov Mpro Biochemical IC50 Assay; conditions: recombinant SARS-CoV-2 Mpro 7.5 nM, fluorogenic peptide substrate 40 μM; read-out: MPro IC50
# [3] = tested on: SARS-CoV-2-NLuc; test: microbe, parasite or virus in culture; format: cell-based, SARS Coronavirus 2; conditions: read-out: MPro EC50
Structure (SMILES),relative activity of the two separated isomers [1],IC50 [2] [nM],EC50 [3] [nM]
"COc1ccc(Cl)c(-c2ccc3c(=O)n(-c4cncc5ccccc45)c(=O)[nH]c3c2)c1 (single isomer, unassigned) [Example 475, 7-(2-chloro-5-methoxy-phenyl)-3-(4-isoquinolyl)-1H-quinazoline-2,4-dione]",more active isomer,17.1,28.5
"Cn1cnc(Cn2c(=O)n(-c3cncc4ccccc34)c(=O)c3sc(-c4ccccc4Cl)cc32)n1 (single isomer, unassigned) [Example 477, 6-(2-chlorophenyl)-3-(4-isoquinolyl)-1-[(1-methyl-1,2,4-triazol-3-yl)methyl]thieno[3,2-d]pyrimidine-2,4-dione]",more active isomer,58,165
